# Patent publication US11214779B2, “Activatable CRISPR/CAS9 for spatial and temporal control of genome editing” (University of Pittsburgh—Of the Commonwealth System of …, priority 2015, dated 2022)
# System: pIRG dual reporter in HEK 293T cells
# Assay: Small molecule activation of Cas9-OABK in live cells (DsRed/EGFP dual reporter assay)
# Type: cell-based, human
# Details: for Concentration dependence of EGFP expression (activation of gene editing): varying concentrations (0-500 μM) of phosphine, Cas9-OABK
# Experimental: HEK 293T cells were seeded into a 96-well cell culture microplate (Greiner), and incubated overnight in DMEM growth media supplemented with 10% FBS and 1% penicillin/streptomycin at 37° C. in 5% CO2 humidified atmosphere. Before transfection, media was replaced with antibiotics-free DMEM supplemented with or without OABK (0.25 mM). Quadruple transfections were carried out with linear PEI using pMbOABKRS-wtCas9 or pMbOABKRS-Cas9-K866TAG, p4CMVE-U6-PylT (Gautier et al., J Am Chem Soc 132, 4086-4088, 2010), gRNA plasmids (Hemphill et al., J Am Chem Soc 137, 5642-5645, 2015), and pRG dual reporter plasmid ((Hemphill et al., J Am Chem Soc 137, 5642-5645, 2015)) (100 ng of each). After a 24 h incubation, cells were washed with fresh DMEM and incubated for 2 h. For regulating gene editing in live cells, HEK 293T cells were treated with 5 (0.5 mM) or without 5. After overnight incubation, media was replaced with DMEM without phenol red, and cells were imaged on a Zeiss Observer Z1 microscope (10× objective, NA 0.8 plan-apochromat) with EGFP BP470/40; Em: BP525/50) and DsRed BP550/25; Em: BP605/70) filter cubes. Fluorescent cell counting was performed on a Nikon A1 confocal microscope (10× objective) and analyzed using Elements software.
# The function of Cas9-OABK in the absence and presence of phosphine derivatives 5 and 6 (see FIG. 14) was investigated using a DsRed/EGFP dual reporter assay (FIG. 15A). […] Once Cas9-OABK is activated by the small molecule phosphine, the complex of functional Cas9 and gRNAs induces excision of the DsRed-terminator cassette, followed by NHEJ repair, and leading to EGFP expression.
SMILES,Concentration dependence of EGFP expression (activation of gene editing),"Effective concentration of phosphine for activation of Cas9-OABK (live HEK 293T cells, concentrations 0-500 μM tested) [µM]"
"O=C(O)c1ccccc1P(c1ccccc1)c1ccccc1 [compound 5, 2-(diphenylphosphino)benzoic acid]",dose-dependent,–
"NC(=O)c1ccccc1P(c1ccccc1)c1ccccc1 [compound 6, 2-(diphenylphosphino)benzamide]",dose-dependent,25
